Literature values as cited in US12171169B2, “Pest repelling drip irrigation pipe” (RIVULIS PLASTRO LTD., priority 2017, dated 2024).

Columns and labels:
humans = conditions: 1S-cis versus 1R-cis enantiomer
pests = conditions: 1R-cis versus 1S-cis enantiomer

SMILES | toxicity to humans relative to 1R-cis-bifenthrin (humans) | effectiveness as a pesticide relative to 1S-cis-bifenthrin (pests)
Cc1c(COC(=O)[C@H]2[C@@H](/C=C(\Cl)C(F)(F)F)C2(C)C)cccc1-c1ccccc1 [1S-cis-Bifenthrin, (2-methyl-[1,1′-biphenyl]-3-yl)methyl (1S,3S)-3-((Z)-2-chloro-3,3,3-trifluoroprop-1-en-1-yl)-2,2-dimethylcyclopropane-1-carboxylate] | 3-4 times | –
Cc1c(COC(=O)[C@@H]2[C@H](/C=C(\Cl)C(F)(F)F)C2(C)C)cccc1-c1ccccc1 [1R-cis-bifenthrin, (2-methyl-[1,1′-biphenyl]-3-yl)methyl (1R,3R)-3-((Z)-2-chloro-3,3,3-trifluoroprop-1-en-1-yl)-2,2-dimethylcyclopropane-1-carboxylate] | – | more than 300 times
